The term IC50 denotes the concentration that gives 50% inhibition.

In assay [1] the target is NR1/NR2B (Homo sapiens (Human), UniProt Q13224). The assay can be described thus: Cell assay: FDSS Ca2+ influx inhibition in HEK293 cells expressing NR1/NR2B.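 Note: Fluo-8 Ca2+ signal read on Hamamatsu FDSS 6000 after glutamate, glycine and Ca2+ challenge following 10 min compound preincubation, end/baseline fluorescence ratio compared with MK801 control.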 As to conditions: read-out: NR2B NAM IC50; HEK293 cells expressing NR1/NR2B, Ca2+ influx.
NR1/NR2B (Homo sapiens (Human), UniProt Q13224), sequence (Q13224 27-1484, other chains not shown): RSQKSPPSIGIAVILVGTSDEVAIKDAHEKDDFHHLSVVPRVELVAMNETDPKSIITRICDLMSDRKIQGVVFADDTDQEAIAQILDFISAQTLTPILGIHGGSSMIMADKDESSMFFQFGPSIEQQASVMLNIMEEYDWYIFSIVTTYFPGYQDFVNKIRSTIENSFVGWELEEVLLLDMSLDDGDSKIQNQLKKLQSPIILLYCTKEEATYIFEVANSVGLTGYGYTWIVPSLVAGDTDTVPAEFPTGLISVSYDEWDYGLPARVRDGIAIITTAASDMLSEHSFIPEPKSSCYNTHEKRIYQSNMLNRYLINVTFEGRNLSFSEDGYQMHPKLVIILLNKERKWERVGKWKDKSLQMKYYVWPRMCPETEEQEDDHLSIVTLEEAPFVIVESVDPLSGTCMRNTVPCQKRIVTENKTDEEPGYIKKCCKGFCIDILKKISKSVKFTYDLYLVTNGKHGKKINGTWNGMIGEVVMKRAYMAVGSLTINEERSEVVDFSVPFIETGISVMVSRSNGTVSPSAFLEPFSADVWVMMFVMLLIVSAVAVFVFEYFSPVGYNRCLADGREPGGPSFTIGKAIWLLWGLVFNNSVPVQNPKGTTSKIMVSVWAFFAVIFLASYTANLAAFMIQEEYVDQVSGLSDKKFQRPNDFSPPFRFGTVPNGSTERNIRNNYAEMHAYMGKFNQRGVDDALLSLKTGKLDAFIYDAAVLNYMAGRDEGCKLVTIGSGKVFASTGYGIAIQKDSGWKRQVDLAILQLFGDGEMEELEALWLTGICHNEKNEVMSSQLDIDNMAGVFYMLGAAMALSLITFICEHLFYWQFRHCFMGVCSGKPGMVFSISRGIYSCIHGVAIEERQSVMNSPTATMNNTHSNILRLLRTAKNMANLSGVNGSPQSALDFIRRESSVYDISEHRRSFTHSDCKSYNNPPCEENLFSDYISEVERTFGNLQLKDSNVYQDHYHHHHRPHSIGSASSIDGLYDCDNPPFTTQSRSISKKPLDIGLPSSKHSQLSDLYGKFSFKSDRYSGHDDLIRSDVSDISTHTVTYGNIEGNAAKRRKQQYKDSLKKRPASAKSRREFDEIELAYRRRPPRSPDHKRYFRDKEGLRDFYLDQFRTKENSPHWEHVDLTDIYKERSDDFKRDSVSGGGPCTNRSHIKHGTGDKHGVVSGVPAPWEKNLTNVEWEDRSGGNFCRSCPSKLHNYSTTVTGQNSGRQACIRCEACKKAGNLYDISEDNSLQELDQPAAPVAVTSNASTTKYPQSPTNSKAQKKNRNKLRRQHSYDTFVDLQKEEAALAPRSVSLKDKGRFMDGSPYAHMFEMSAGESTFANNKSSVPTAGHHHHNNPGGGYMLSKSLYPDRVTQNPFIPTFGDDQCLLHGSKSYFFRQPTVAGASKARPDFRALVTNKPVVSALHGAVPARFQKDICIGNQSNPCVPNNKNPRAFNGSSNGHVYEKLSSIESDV
For assay [2], the target named is NR1/NR2B (Homo sapiens (Human), UniProt Q05586+Q13224). Described as above. The settings on record: Binned Activity, HEK293 cells expressing NR1/NR2B, Ca2+ influx; binned NR2B NAM IC50.
NR1/NR2B (Homo sapiens (Human), UniProt Q05586+Q13224), sequence (Q13224 27-1484, other chains not shown): as above

In the case of `O=C(CN1C[C@@H]2C[C@@](O)(Cc3ccccc3)C[C@@H]2C1)c1ccc(O)cc1` [Example 130, 2-((3aR,5r,6aS)-5-benzyl-5-hydroxyhexahydrocyclo-penta[c]pyrrol-2(1H)-yl)-1-(4-hydroxyphenyl)ethanone], the values for the IC50 in assay [1] and in assay [2] were 44.1 nM and < 100 nM, respectively.

Source of the values: patent publication US10052306B2 (LUC THERAPEUTICS, INC., priority 2013, dated 2018).
